Reference: patent US20180002400A1, “SHORT PEPTIDE-BASED THERAPEUTIC AGENT AND MEDICINAL COMPOSITION INCLUDING THE SAME FOR INHIBITING ACTIVITIES OF CANCER CELLS” (NATIONAL CHENG KUNG UNIVERSITY, priority 2015, published 2018)

Tests used:
[1] = system: lung cancer A549 cell; experiment: Cancer cell invasion (matrigel-coated insert) induced by euPTX3; assay type: cell-based, human; details: A549; short peptide 10 μg/mL + euPTX3 2.5 μg/mL; FIG. 2C right panel
Description: (§1) The cell density 5×10^4 cells/well of the breast cancer MB231 cell, the lung cancer A549 cell and the nasopharyngeal cancer HONE1 cell were seeded into each upper insert of 24-well plate (containing 8-μm pore insert per well; BD Biosciences), the upper insert and the lower well were separated by the polyethelene terephthalate membrane coated with matrigel (purchased from BD Bioscience), and cultured for 3 hours.
(§2) Next, the medium in each upper insert was replaced by serum-free medium, and the medium in each lower well was added with the short peptides RI37, GI40, KT44 and the polypeptide euPTX3 and pPTX3/C of Example 1. The cells inside each upper insert were wiped with cotton swabs and removed after 16 hours of cultivation. Remaining cells that had migrated to the bottom of the insert membrane were stained by 4′, 6-diamidino-2-phenylindole (DAPI; Invitrogen) and calculated under fluorescence microscopy with 200-fold magnification.

[2] = system: nasopharyngeal cancer HONE1 cell; experiment: as above; assay type: cell-based, human; details: HONE1; short peptide 10 μg/mL + euPTX3 2.5 μg/mL; FIG. 3C right panel
Description: as §1, §2

[3] = system: drug-resistant MB231R breast cancer; experiment: Xenograft tumor model, CDDP-resistant MB231R cells in NOD-SCID mice; assay type: in vivo, mouse; details: for drug resistance generated by the tumor: 50 μg short peptide intratumorally twice weekly combined with CDDP 5 mg/kg i.p. once weekly; for drug resistance generated by the tumor / tumor growth (tumor size): FIG. 4D; for tumor growth (tumor size): 50 μg short peptide intratumorally twice weekly; for tumor metastasis and growth (images of tumors of various organs, epi-fluorescence radiance efficiency): IVIS imaging; for tumor metastasis (number of metastatic nodules per lung) / tumor growth (tumor weight per lung): sacrificed after ten weeks; for tumor metastasis (number of metastatic nodules per lung): FIG. 4E left panel; for tumor growth (tumor weight per lung): FIG. 4E right panel
Description: Besides, 1×10^6 mCherry fluorescent protein-labeled CDDP-resistant human MDA-MB-231 cells (MB231R; ATCC CRL-2539) were inoculated subcutaneously to the rear side of the back of six to eight-week-old female NOD-SCID immunodeficiency mice (purchased from Laboratory Animal Center of National Cheng Kung University). After 1 week of inoculation, the mice were intraperitoneally injected with 5 mg/kg of CDDP [dissolved in 1% (w/v) DMSO] or only 1% (w/v) of DMSO once weekly, and intratumorally uninjected or injected with 50 μg of the short peptides RI37, GI40 and KT44 of Example 1 twice weekly. The mice were sacrificed after ten weeks of inoculation. Spleen, kidneys, lungs and liver were obtained, tumor weight of those organs were measured according to 3 replications per group, and the metastatic activity and the number of metastatic nodules per organ were confirmed by IVIS Spectrum Imaging System. The tumor size was measured by a commercial external caliper, and the tumor volume (V) was calculated by the following formula (I). Each condition of the experiment was repeated at least thrice.

[4] = system: breast cancer MB231 cell; experiment: MTT cell viability (cell toxicity) of cancer cells co-cultured with short peptides; assay type: cell-based, human; details: MB231 co-cultured with increasing amount of short peptide for 24 hours or 48 hours; FIG. 1B
Description: After the human breast cancer MB231 cell of Example 2 was co-cultured with the short peptides RI37, GI40 and KT44 of Example 1 for 24 hours or 48 hours, the cell toxicity was analyzed by using MTT [3-(4,5-dimethylthiazol-2-yl)-2,5-[…] tetrazolium bomide] (Sigma). The transparent and colorless tetrazolium salt of MTT was degraded by mitochondrial dehydrogenase in live cells and converted to blue formazan crystals. Based on the cell viability of the cell in the absence of the short peptides of Example 1 as 100%, the influence of the cancer cell proliferation could be determined by using the short peptides.

## GI40: artificially synthetic short peptide having the amino acid sequence listed as SEQ ID NO:2, designed from human PTX3 (NP_002843.2) (GGGFDETLAFSGRLTGFNIWDSVLSNEEIRETGGAESCHI; The 320th amino acid to 359th amino acid of Human sapiens PTX3 (GI40))
[1]
  invasive cell numbers induced by the polypeptide euPTX3: could effectively inhibit the invasive cell numbers
[2]
  invasive cell numbers induced by the polypeptide euPTX3: could effectively inhibit the invasive cell numbers
[3]
  drug resistance generated by the tumor: reduce the drug resistance
  tumor growth (tumor size): could inhibit tumor growth
  tumor metastasis (number of metastatic nodules per lung): could inhibit tumor metastasis
  tumor growth (tumor weight per lung): could inhibit tumor metastasis and growth
[3]; FIG. 4F
  tumor metastasis and growth (images of tumors of various organs, epi-fluorescence radiance efficiency): could inhibit tumor metastasis and growth
[4]
  cell viability: no significant influence on the cell viability

## KT44: artificially synthetic peptide having the amino acid sequence listed as SEQ ID NO:3 (KLVAEAMVSLGRWTHLCGTWNSEEGLTSLWVNGELAATTVEMAT; The 255th amino acid to 298th amino acid of Human sapiens PTX3 (KT44))
[1]
  invasive cell numbers induced by the polypeptide euPTX3: could not inhibit the invasive cell numbers
[2]
  invasive cell numbers induced by the polypeptide euPTX3: could not inhibit the invasive cell numbers
[3]
  tumor growth (tumor size): could not significantly inhibit the tumor growth
  tumor metastasis (number of metastatic nodules per lung): could not significantly inhibit tumor metastasis
  tumor growth (tumor weight per lung): could not significantly inhibit tumor metastasis and growth
[3]; FIG. 4F
  metastatic nodules in organs (imaging): metastatic nodules was found in lungs
  tumor metastasis and growth (images of tumors of various organs, epi-fluorescence radiance efficiency): could not significantly inhibit tumor metastasis and growth
[4]
  cell viability: no significant influence on the cell viability

## RI37: artificially synthetic short peptide having the amino acid sequence listed as SEQ ID NO:1, designed from human PTX3 (NP_002843.2) (RPMRLESFSACIWVKATDVLNKTILFSYGTKRNPYEI; The 200th amino acid to 236th amino acid of Human sapiens PTX3 (RI37))
[1]
  invasive cell numbers induced by the polypeptide euPTX3: could effectively inhibit the invasive cell numbers
[2]
  invasive cell numbers induced by the polypeptide euPTX3: could effectively inhibit the invasive cell numbers
[3]
  drug resistance generated by the tumor: reduce the drug resistance
  tumor growth (tumor size): could inhibit tumor growth
  tumor metastasis (number of metastatic nodules per lung): could inhibit tumor metastasis
  tumor growth (tumor weight per lung): could inhibit tumor metastasis and growth
[3]; FIG. 4F
  tumor metastasis and growth (images of tumors of various organs, epi-fluorescence radiance efficiency): could inhibit tumor metastasis and growth
[4]
  cell viability: no significant influence on the cell viability
